Laboratory results as given in patent US20240101599A1, “PEPTIDE, CELL GROWTH PROMOTER, PROTEIN PRODUCTION PROMOTER, CULTURE MEDIUM, CELL GROWTH METHOD USING PEPTIDE, AND PROTEIN PRODUCTION METHOD USING PEPTIDE” (Maruhachi Muramatsu, Inc., priority 2020, published 2024).
Peptide text beside a SMILES is read from it.

What was measured:
CHO-K1 [1] = experiment: Relationship between number of days of cell growth of each peptide and cell number (absorbance); assay type: cell-based; details: 1.1 mM GPP, 2.2 mM DGP, 2.1 mM GEK, 2.0 mM AGK, MEMα without FBS
Description: Peptides having the sequences of Gly-Pro-Pro (GPP), Asp-Gly-Pro (DGP), Gly-Glu-Lys (GEK), and Ala-Gly-Lys (AGK) were synthesized to prepare each peptide solution such that the concentration was a concentration at which the cell number increased the most within a range of 0 mM to 5 mM. In other words, Gly-Pro-Pro (GPP) was adjusted to 11 mM, Asp-Gly-Pro (DGP) was adjusted to 22 mM, Gly-Glu-Lys (GEK) was adjusted to 21 mM, and Ala-Gly-Lys (AGK) was adjusted to 20 mM, and an amount of 1/10 of the total culture medium volume was added to each well immediately before the cell culture test such that final concentrations were 1.1 mM, 2.2 mM, 2.1 mM, and 2.0 mM, respectively.
A cell suspension prepared such that CHO-K1 (RIKEN BioResource Research Center, cell number: RCB2330) was at 3×10^4 cells/mL was seeded in a 96-well plate at 100 μL/well and cultured in an incubator at 37° C. and 5% CO2 for 24 hours. As a culture medium, an MEMα culture medium (Gibco) containing 10% FBS was used.
After removing the culture medium from each well and washing with the MEMα culture medium (100 μL), 90 μL of a new MEMα culture medium was dispensed into each well, and each peptide solution (10 μL) was added (total 100 μL/well) to perform culture for 0 to 5 days. Every day, 10 μL/well of a viable cell count measurement reagent SF (Nacalai Tesque Inc.) was added, and a color reaction was carried out in an incubator at 37° C. and 5% CO2 for 2 hours to measure an absorbance at 450 nm with a plate reader. A reference wavelength was 630 nm. It was confirmed that the absorbance at 450 nm correlated with the cell number. A similar culture test was performed using a system containing neither peptide nor FBS as a comparative sample.
The above preparation, culture, and measurement were performed with n=3, and Table 12 and FIG. 12 show the absorbance and the standard deviation of each peptide solution for each day.

CHO-K1 [2] = experiment: Cell growth test of each peptide on coating agent for 5 days; assay type: cell-based; set-up: Viability, 1 / Viability, 2 / Viability, 3 / Viability, Mean: unit not given here; details: 2.0 mM Ala-Gly-Lys, 2.1 mM Gly-Glu-Lys, 2.5 mM Gly-Gly-Gly, poly-L-lysine coating; for Cells cell count, Mean / Viability, Mean: mean n=3, 2.2 mM Asp-Gly-Pro; for Cells cell count, 1 / Viability, 1: replicate 1, 2.2 mM Asp-Gly-Pro; for Cells cell count, 2 / Viability, 2: replicate 2, 2.2 mM Asp-Gly-Pro; for Cells cell count, 3 / Viability, 3: replicate 3, 2.2 mM Asp-Gly-Pro
Description: Peptides having the sequences of Asp-Gly-Pro (DGP), Ala-Gly-Lys (AGK), Gly-Glu-Lys (GEK), and Gly-Gly-Gly (GGG) were synthesized to prepare each peptide solution such that the concentration was a concentration at which the cell number increased the most within a range of 0 mM to 5 mM. In other words, Asp-Gly-Pro (DGP) was adjusted to 22 mM, Ala-Gly-Lys (AGK) was adjusted to 20 mM, Gly-Glu-Lys (GEK) was adjusted to 21 mM, and Gly-Gly-Gly (GGG) was adjusted to 25 mM, and an amount of 1/10 of the total culture medium volume was added to each well immediately before the cell culture test such that final concentrations were 2.2 mM, 2.0 mM, 2.1 mM, and 2.5 mM, respectively. Poly-L-lysine (Peptide Institute, Inc., Poly-L-Lysine Hydrochloride, code: 3075) was prepared to 0.1 mg/mL, and 200 μL was dispensed into each well of a 24-well plate, which was left to stand in an incubator at 37° C. for 2 hours. After removing the residual liquid with an aspirator, rinsing was performed with distilled water, irradiation was performed with a UV lamp in a clean bench without a lid, and drying was performed overnight to sterilize. A cell suspension prepared such that CHO-K1 (RIKEN BioResource Research Center, cell number: RCB2330) was at 4×10^4 cells/mL was seeded in each well of a 24-well plate at 500 μL/well and cultured in an incubator at 37° C. and 5% CO2 for 24 hours. As a culture medium, an MEMα culture medium (Gibco) containing 10% FBS was used.
After removing the culture medium from each well and washing with the MEMα culture medium (500 μL), 450 μL of a new MEMα culture medium was dispensed into each well, and each peptide solution (50 μL) was added (total 500 μL/well) to perform culture for 5 days. The cells were recovered to count the cell number. A similar culture test was performed using a system containing neither peptide nor FBS as a comparative sample.
The culture medium in each well was recovered in a 1.5 mL tube to be rinsed with 200 μL of MEMα, and the rinsed liquid was also recovered in the same 1.5 mL tube. Thereafter, 100 μL of trypsin was added and incubated for 3 minutes. After rinsing with 300 μL of MEMα containing 10% FBS, the rinsed liquid was also recovered in the same 1.5 mL tube. After rinsing again with 200 μL of MEMα containing 10% FBS, the rinsed liquid was also recovered in the same 1.5 mL tube.
A centrifugation operation was performed on the cells recovered in the 1.5 mL tube. The centrifugation conditions were 1,000 rpm, 10 minutes, and 4° C.
The supernatant was removed, and 300 μL of Cold PBS (phosphate buffered saline) was added to perform a centrifugation operation under the same conditions. The present operation was repeated twice.
Suspension was carried out with 100 μL of Binding Buffer, and 2 μL of propidium iodide (PI) was added and stirred in the tube to cause a reaction for 15 minutes at room temperature and with light shielding. Thereafter, the viable cell count and the cell viability were measured with a flow cytometer.
The above preparation, culture, and measurement were performed with n=3. Table 15 and FIG. 15 show the viable cell count in each peptide solution, and Table 16 and FIG. 16 show the cell viability in each peptide solution.

Row | Compound | OD450 (average value n = 3) (CHO-K1 [1]; Day 0) | OD450 (average value n = 3) (CHO-K1 [1]; Day 1) | OD450 (average value n = 3) (CHO-K1 [1]; Day 2) | OD450 (average value n = 3) (CHO-K1 [1]; Day 3) | OD450 (average value n = 3) (CHO-K1 [1]; Day 4) | OD450 (average value n = 3) (CHO-K1 [1]; Day 5) | Cells cell count, Mean (CHO-K1 [2]) | Viability, Mean (CHO-K1 [2]) | Cells cell count, 1 (CHO-K1 [2]) | Viability, 1 (CHO-K1 [2]) | Cells cell count, 2 (CHO-K1 [2]) | Viability, 2 (CHO-K1 [2]) | Cells cell count, 3 (CHO-K1 [2]) | Viability, 3 (CHO-K1 [2])
1 | C[C@H](N)C(=O)NCC(=O)N[C@@H](CCCCN)C(=O)O [AGK, Ala-Gly-Lys] (H-Ala-Gly-Lys-OH; N-terminus and C-terminus assumed) | 0.1757 | 0.4577 | 0.7440 | 0.7997 | 1.0263 | 1.0620 | 2.6217 ×10^4 | 25.0 | 2.6860 ×10^4 | 26.4 | 3.0605 ×10^4 | 26.4 | 2.1185 ×10^4 | 22.1
2 | NCCCC[C@H](NC(=O)[C@H](CCC(=O)O)NC(=O)CN)C(=O)O [GEK, Gly-Glu-Lys] (H-Gly-Glu-Lys-OH; N-terminus and C-terminus assumed) | 0.1613 | 0.4280 | 0.6043 | 0.7300 | 0.9023 | 0.9107 | 16.5830 ×10^4 | 90.3 | 15.7190 ×10^4 | 90.2 | 16.9875 ×10^4 | 90.3 | 17.0425 ×10^4 | 90.5
3 | Asp-Gly-Pro [DGP] | 0.1607 | 0.4507 | 0.6840 | 0.7700 | 0.9313 | 0.9363 | 14.9353 ×10^4 | 89.6 | 15.8220 ×10^4 | 91.5 | 14.8590 ×10^4 | 91.2 | 14.1250 ×10^4 | 86.0
4 | Gly-Pro-Pro [GPP] | 0.2023 | 0.5267 | 0.7083 | 0.8350 | 1.0227 | 0.9003 | – | – | – | – | – | – | – | –
